# Experimental data: patent publication US20230346773A1, “USE OF PCSK9 INHIBITOR IN PREPARATION OF PRODUCT FOR TREATING MULTIPLE DISEASES” (priority 2020, published 2023)
# Legend:
# Format in all cases: in vivo, Wistar rats
# VEGF-mRNA = experiment: Bleomycin pulmonary fibrosis rat model: VEGF-mRNA in lung tissue by reverse transcription PCR; details: n = 6, x ± s
# Experimental: (§1) Rats were numbered according to their body weight and divided into groups according to their body weight by random arrangement table method, and divided into small molecule compound treatment group (tail vein injection of PCSK9 small molecule compound inhibitor, 3 mg/kg·d), siPcsk9 treatment group (Tail vein injection of PCSK9 small interfering RNA, 3 mg/kg·d), monoclonal antibody treatment group (tail vein injection of PCSK9 monoclonal antibody, 3 mg/kg·d), peptide treatment group (tail vein injection of PCSK9 polypeptide inhibitor, 3 mg/kg·d), model group (injection of physiological saline into tail vein, 3 mg/kg·d), and blank control group (injection of physiological saline into tail vein, 3 mg/kg·d), 12 animals in each group, half male and half female. Rats in each group were anesthetized by intraperitoneal injection of 2% sodium pentobarbital ([…]), fixed on the operating table, and injected into the neck trachea. The control group was injected with normal saline (1.25 ml/kg), and the model group and each treatment group were injected with 5 U/mL bleomycin solution (5 mg/kg). […]
# (§2) Peripheral venous blood was collected from the tail vein of animals in each group after modeling and 14 days after treatment, and the levels of superoxide dismutase (SOD) and catalase (CAT) in peripheral blood were detected. […]
# [1] = test system: superoxide dismutase (SOD); experiment: Bleomycin pulmonary fibrosis rat model: SOD in peripheral blood; details: n = 6, x ± s
# Experimental: as §1, §2
# MMP-9 = experiment: Bleomycin pulmonary fibrosis rat model: MMP-9 expression in lung tissue; details: after 14 days of treatment, tail vein 3 mg/kg·d, n = 6, x ± s
# Experimental: as §1, §2
# catalase (CAT) = experiment: Bleomycin pulmonary fibrosis rat model: CAT in peripheral blood; details: n = 6, x ± s
# Experimental: as §1, §2
# TIMP-1 = experiment: Bleomycin pulmonary fibrosis rat model: TIMP-1 expression in lung tissue; details: after 14 days of treatment, tail vein 3 mg/kg·d, n = 6, x ± s
# Experimental: as §1, §2
# VEGF protein = experiment: Bleomycin pulmonary fibrosis rat model: VEGF protein in lung tissue by ELISA; details: n = 6, x ± s
# Experimental: as §1, §2
# MMP-2 = experiment: Bleomycin pulmonary fibrosis rat model: MMP-2 expression in lung tissue; details: after 14 days of treatment, tail vein 3 mg/kg·d, n = 6, x ± s
# Experimental: as §1, §2
# [2] = after modeling (before the 14 days of treatment)
# [3] = tail vein 3 mg/kg·d once a day for 14 days
smiles,measurement,setting,value
"COc1ccc(CCC(=O)N(c2nccc3ccccc23)[C@@H]2CCCNC2)cc1 [Compound group 1, R-IMPP]","VEGF-mRNA, 14 days after modeling",VEGF-mRNA; [2],0.53 ± 0.16
same,"VEGF-mRNA, 14 days after treatment",VEGF-mRNA; [3],0.85 ± 0.16
same,"SOD, 14 days after modeling",[1]; [2],171.45 ± 13.92 U/ml
same,"SOD, 14 days after treatment",[1]; [3],218.56 ± 14.36 U/ml
same,MMP-9,MMP-9,3.43 ± 0.34
same,"CAT, 14 days after modeling",catalase (CAT); [2],9.43 ± 2.31 kU/g
same,"CAT, 14 days after treatment",catalase (CAT); [3],14.45 ± 1.51 kU/g
same,TIMP-1,TIMP-1,8.56 ± 0.58
same,"VEGF protein, 14 days after modeling",VEGF protein; [2],38.47 ± 3.23 pg/mL
same,"VEGF protein, 14 days after treatment",VEGF protein; [3],57.61 ± 3.86 pg/mL
same,MMP-2,MMP-2,2.67 ± 0.32
